molecular target: Human Factor D (Homo sapiens (Human), UniProt P00746); experiment: Human Factor D Assay; format: biochemical; conditions: Table 6; Factor D 80 nM, substrate Z-L-Lys-SBz; read-out: IC50
Procedure: The assay of Example 10 was used to determine the IC50's of the compounds. Other standard factor D inhibition assays are also available.
Human Factor D (purified from human serum, Complement Technology, Inc.) at 80 nM final concentration is incubated with test compound at various concentrations for 5 min at room temperature in 50 mM Tris, 1M NaCl, pH 7.5. A synthetic substrate Z-L-Lys-SBz and DTNB (Ellman's reagent) are added to final concentrations of 100 μM each. Absorbance at 405 nm (A405) is recorded at 30 second intervals for 30 min using a microplate spectrophotometer. IC50 values are calculated by nonlinear regression of complement Factor D reaction rates as a function of test compound concentration.

Human Factor D, sequence (P00746 26-253): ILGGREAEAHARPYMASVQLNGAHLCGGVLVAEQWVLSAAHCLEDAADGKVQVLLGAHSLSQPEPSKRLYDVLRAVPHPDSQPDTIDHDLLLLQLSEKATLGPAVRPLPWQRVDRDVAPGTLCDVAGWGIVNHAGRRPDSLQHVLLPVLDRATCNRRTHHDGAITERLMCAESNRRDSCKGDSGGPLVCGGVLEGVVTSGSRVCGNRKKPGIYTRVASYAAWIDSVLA

Row | SMILES | IC50 [nM]
1 | CC(=O)c1nn(CC(=O)N2C3CC3(CN3CC4CCCC4C3)C[C@H]2C(=O)Nc2nc(Br)ccc2C)c2ccc(-c3cnc(C)nc3)cc12 (stereo partly drawn) [Compound 11, (3S)-2-(2-(3-Acetyl-5-(2-methylpyrimidin-5-yl)-1H-indazol-1-yl)acetyl)-N-(6-bromo-3-methylpyridin-2-yl)-5-((hexahydrocyclopenta[c]pyrrol-2(1H)-yl)methyl)-2-azabicyclo[3.1.0]hexane-3-carboxamide] | < 1000
2 | CC(=O)c1nn(CC(=O)N2C3CC3(CN3CC4CC(C4)C3)C[C@H]2C(=O)Nc2nc(Br)ccc2C)c2ccc(-c3cnc(C)nc3)cc12 (some centres unmarked) [Compound 12] | < 1000
3 | CC(=O)c1nn(CC(=O)N2[C@H](C(=O)Nc3nc(Br)ccc3C(C)C)C[C@@]3(C)C[C@@H]23)c2ccc(-c3cnc(C)nc3)cc12 [Compound 14, (1R,3S,5R)-2-(2-(3-Acetyl-5-(2-methylpyrimidin-5-yl)-1H-indazol-1-yl)acetyl)-N-(6-bromo-3-isopropylpyridin-2-yl)-5-methyl-2-azabicyclo[3.1.0]hexane-3-carboxamide] | < 1000
4 | CC(=O)c1nn(CC(=O)N2[C@H](C(=O)Nc3nc(Br)ccc3C)C[C@@]3(C)C[C@@H]23)c2cnc(-c3cnc(C)nc3)cc12 [Compound 15, (1R,3S,5R)-2-(2-(3-Acetyl-5-(2-methylpyrimidin-5-yl)-1H-pyrazolo[3,4-c]pyridin-1-yl)acetyl)-N-(6-bromo-3-methylpyridin-2-yl)-5-methyl-2-azabicyclo[3.1.0]hexane-3-carboxamide] | < 1000
5 | CC(=O)c1nn(CC(=O)N2C[C@H](F)C[C@H]2C(=O)NCC23C4C5C6C4C2C6C53)c2ccc(-c3cnc(C)nc3)cc12 (stereo partly drawn) [Compound 16, (2S,4R)-1-(2-(3-Acetyl-5-(2-methylpyrimidin-5-yl)-1H-indazol-1-yl)acetyl)-N-(cuban-1-ylmethyl)-4-fluoropyrrolidine-2-carboxamide] | 1000 to 10000
6 | CC(=O)c1nn(CC(=O)N2[C@@H]3C[C@@H]3C[C@H]2C(=O)NC/C(F)=C(/C)c2ccccc2)c2c(C)cc(-c3cnc(C)nc3)cc12 [Compound 17, (1R,3S,5R)-2-(2-(3-Acetyl-7-methyl-5-(2-methylpyrimidin-5-yl)-1H-indazol-1-yl)acetyl)-N-((E)-2-fluoro-3-phenylbut-2-en-1-yl)-2-azabicyclo[3.1.0]hexane-3-carboxamide] | < 1000
7 | CC(=O)c1nn(CC(=O)N2C[C@H](F)C[C@H]2C(=O)Nc2cccc(Br)n2)c2c(CN(C)C)cc(-c3cnc(C)nc3)cc12 [Compound 19, (2S,4R)-1-(2-(3-Acetyl-7-((dimethylamino)methyl)-5-(2-methylpyrimidin-5-yl)-1H-indazol-1-yl)acetyl)-N-(6-bromopyridin-2-yl)-4-fluoropyrrolidine-2-carboxamide] | < 1000
8 | CC(=O)c1nn(CC(=O)N2C[C@H](F)C[C@H]2C(=O)Nc2cccc(Br)n2)c2c(CF)cc(-c3cnc(C)nc3)cc12 [Compound 20, (2S,4R)-1-(2-(3-Acetyl-7-(fluoromethyl)-5-(2-methylpyrimidin-5-yl)-1H-indazol-1-yl)acetyl)-N-(6-bromopyridin-2-yl)-4-fluoropyrrolidine-2-carboxamide] | < 1000
9 | CC(=O)c1nn(CC(=O)N2C[C@H](F)C[C@H]2C(=O)Nc2cccc(Br)n2)c2c(Cc3ncc(C)cn3)cc(-c3cnc(C)nc3)cc12 [Compound 21, (2S,4R)-1-(2-(3-acetyl-7-((5-methylpyrimidin-2-yl)methyl)-5-(2-methylpyrimidin-5-yl)-1H-indazol-1-yl)acetyl)-N-(6-bromopyridin-2-yl)-4-fluoropyrrolidine-2-carboxamide] | < 1000
10 | CC(=O)c1nn(CC(=O)N2C3CC3(CN3CCNCC3)C[C@H]2C(=O)Nc2nc(Br)ccc2C)c2ccc(-c3cnc(C)nc3)cc12 (stereo partly drawn) [Compound 22, (3S)-2-(2-(3-Acetyl-5-(2-methylpyrimidin-5-yl)-1H-indazol-1-yl)acetyl)-N-(6-bromo-3-methylpyridin-2-yl)-5-(piperazin-1-ylmethyl)-2-azabicyclo[3.1.0]hexane-3-carboxamide] | < 1000
11 | CC(=O)c1nn(CC(=O)N2C[C@H](F)C[C@H]2C(=O)Nc2nc(Br)ccc2CC#N)c2ccc(-c3cnc(C)nc3)cc12 [Compound 23, (2S,4R)-1-(2-(3-Acetyl-5-(2-methylpyrimidin-5-yl)-1H-indazol-1-yl)acetyl)-N-(6-bromo-3-(cyanomethyl)pyridin-2-yl)-4-fluoropyrrolidine-2-carboxamide] | < 1000
12 | CC(=O)c1nn(CC(=O)N2C3CC3(CN3CCN(C)CC3)C[C@H]2C(=O)Nc2nc(Br)ccc2C)c2ccc(-c3cnc(C)nc3)cc12 (stereo partly drawn) [Compound 24, (3S)-2-(2-(3-Acetyl-5-(2-methylpyrimidin-5-yl)-1H-indazol-1-yl)acetyl)-N-(6-bromo-3-methylpyridin-2-yl)-5-((4-methylpiperazin-1-yl)methyl)-2-azabicyclo[3.1.0]hexane-3-carboxamide] | < 1000
13 | COC(=O)c1cc(-c2cnc(C)nc2)cc2c(C(C)=O)nn(CC(=O)N3C[C@H](F)C[C@H]3C(=O)Nc3cccc(Br)n3)c12 [Compound 25, Methyl 3-acetyl-1-(2-((2S,4R)-2-((6-bromopyridin-2-yl)carbamoyl)-4-fluoropyrrolidin-1-yl)-2-oxoethyl)-5-(2-methylpyrimidin-5-yl)-1H-indazole-7-carboxylate] | < 1000
14 | CC(=O)c1nn(CC(=O)N2C3CC3(CN)C[C@H]2C(=O)Nc2nc(Br)ccc2C)c2ccc(-c3cnc(C)nc3)cc12 (stereo partly drawn) [Compound 26, (3S)-2-(2-(3-Acetyl-5-(2-methylpyrimidin-5-yl)-1H-indazol-1-yl)acetyl)-5-(aminomethyl)-N-(6-bromo-3-methylpyridin-2-yl)-2-azabicyclo[3.1.0]hexane-3-carboxamide] | 1000 to 10000
15 | CC(=O)c1nn(CC(=O)N2[C@H](C(=O)Nc3nc(Br)c(F)cc3C)C[C@@]3(C)C[C@@H]23)c2c(C)cc(-c3cnc(C)nc3)cc12 [Compound 27, (1R,3S,5R)-2-(2-(3-acetyl-7-methyl-5-(2-methylpyrimidin-5-yl)-1H-indazol-1-yl)acetyl)-N-(6-bromo-5-fluoro-3-methylpyridin-2-yl)-5-methyl-2-azabicyclo[3.1.0]hexane-3-carboxamide] | < 1000
16 | C=CCOCc1ccc(Br)nc1NC(=O)[C@@H]1C[C@]2(COCC=C)C[C@@H]2N1C(=O)Cn1nc(C(C)=O)c2cc(-c3cnc(C)nc3)ccc21 [Compound 29, (1S,3S,5R)-2-(2-(3-Acetyl-5-(2-methylpyrimidin-5-yl)-1H-indazol-1-yl)acetyl)-5-((allyloxy)methyl)-N-(3-((allyloxy)methyl)-6-bromopyridin-2-yl)-2-azabicyclo[3.1.0]hexane-3-carboxamide] | < 1000
17 | CC(=O)c1nn(CC(=O)N2[C@H](C(=O)Nc3nc(Br)ccc3C)C[C@@]3(C)C[C@@H]23)c2c(CF)cc(-c3cnc(C)nc3)cc12 [Compound 31, (1R,3S,5R)-2-(2-(3-Acetyl-7-(fluoromethyl)-5-(2-methylpyrimidin-5-yl)-1H-indazol-1-yl)acetyl)-N-(6-bromo-3-methylpyridin-2-yl)-5-methyl-2-azabicyclo[3.1.0]hexane-3-carboxamide] | < 1000
18 | COCc1cc(-c2cnc(C)nc2)cc2c(C(C)=O)nn(CC(=O)N3C4CC4(COC)C[C@H]3C(=O)Nc3cccc(Br)n3)c12 (stereo partly drawn) [Compound 32, (3S)-2-(2-(3-Acetyl-7-(methoxymethyl)-5-(2-methylpyrimidin-5-yl)-1H-indazol-1-yl)acetyl)-N-(6-bromopyridin-2-yl)-5-(methoxymethyl)-2-azabicyclo[3.1.0]hexane-3-carboxamide] | < 1000
19 | CC(=O)c1nn(CC(=O)N2[C@H](C(=O)Nc3cccc(OC(F)(F)F)c3F)C[C@@]3(C)C[C@@H]23)c2c(C)cc(-c3cnc(C)nc3)cc12 [Compound 33, (1R,3S,5R)-2-(2-(3-Acetyl-7-methyl-5-(2-methylpyrimidin-5-yl)-1H-indazol-1-yl)acetyl)-N-(2-fluoro-3-(trifluoromethoxy)phenyl)-5-methyl-2-azabicyclo[3.1.0]hexane-3-carboxamide] | < 1000
20 | CC(=O)c1nn(CC(=O)N2[C@H](C(=O)N[C@@H](C)C(F)=C(C)C)C[C@@]3(C)C[C@@H]23)c2c(C)cc(-c3cnc(C)nc3)cc12 [Compound 34, (1R,3S,5R)-2-(2-(3-Acetyl-7-methyl-5-(2-methylpyrimidin-5-yl)-1H-indazol-1-yl)acetyl)-N—((S)-3-fluoro-4-methylpent-3-en-2-yl)-5-methyl-2-azabicyclo[3.1.0]hexane-3-carboxamide] | < 1000
21 | CC(=O)c1nn(CC(=O)N2[C@H](C(=O)Nc3ccn(CC(F)(F)F)n3)C[C@@]3(C)C[C@@H]23)c2c(C)cc(-c3cnc(C)nc3)cc12 [Compound 35, (1R,3S,5R)-2-(2-(3-Acetyl-7-methyl-5-(2-methylpyrimidin-5-yl)-1H-indazol-1-yl)acetyl)-5-methyl-N-(1-(2,2,2-trifluoroethyl)-1H-pyrazol-3-yl)-2-azabicyclo[3.1.0]hexane-3-carboxamide] | < 1000
22 | CC(=O)c1nn(CC(=O)N2[C@H](C(=O)Nc3cccc(C(F)(F)F)n3)C[C@@]3(C)C[C@@H]23)c2c(C)cc(-c3cnc(C)nc3)cc12 [Compound 36, (1R,3S,5R)-2-(2-(3-Acetyl-7-methyl-5-(2-methylpyrimidin-5-yl)-1H-indazol-1-yl)acetyl)-5-methyl-N-(6-(trifluoromethyl)pyridin-2-yl)-2-azabicyclo[3.1.0]hexane-3-carboxamide] | < 1000
23 | CC(=O)c1nn(CC(=O)N2[C@H](C(=O)Nc3cccc(OC(F)(F)F)n3)C[C@@]3(C)C[C@@H]23)c2c(C)cc(-c3cnc(C)nc3)cc12 [Compound 37, (1R,3S,5R)-2-(2-(3-Acetyl-7-methyl-5-(2-methylpyrimidin-5-yl)-1H-indazol-1-yl)acetyl)-5-methyl-N-(6-(trifluoromethoxy)pyridin-2-yl)-2-azabicyclo[3.1.0]hexane-3-carboxamide] | < 1000
